In ChEMBL document CHEMBL1201862, “PubChem BioAssay data set” (2004):
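Interpolation was linear, between the two tested concentrations surrounding the appropriate level; five concentrations were tested over 48 hours in 96-well plates. At the GI50, growth is halved.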 The source made the active and inactive calls. Rule as the data show it: active = GI50 up to about 1.1 µM and inactive = higher.

Legend:
Assay in all cases: growth of human tumour cells (NCI), 48 h
HCT-116 = test system: HCT-116
SF-539 = test system: SF-539
SF-295 = test system: SF-295
IGROV-1 = test system: IGROV-1
SN12C = test system: SN12C
HOP-92 = test system: HOP-92
MOLT-4 = test system: MOLT-4
A498 = test system: A498
SF-268 = test system: SF-268
COLO 205 = test system: COLO 205
LOX IMVI = test system: LOX IMVI
MCF7 = test system: MCF7
NCI/ADR-RES = test system: NCI/ADR-RES
OVCAR-4 = test system: OVCAR-4
SW-620 = test system: SW-620
NCI-H460 = test system: NCI-H460
UACC-62 = test system: UACC-62
MDA-N = test system: MDA-N
SNB-75 = test system: SNB-75
CAKI-1 = test system: CAKI-1
Hs-578T = test system: Hs-578T
OVCAR-3 = test system: OVCAR-3
NCI-H23 = test system: NCI-H23
MDA-MB-231 = test system: MDA-MB-231
RPMI-8226 = test system: RPMI-8226
SK-OV-3 = test system: SK-OV-3
PC-3 = test system: PC-3
M14 = test system: M14
TK-10 = test system: TK-10
DU-145 = test system: DU-145
ACHN = test system: ACHN
HT-29 = test system: HT-29
HOP-62 = test system: HOP-62
SNB-19 = test system: SNB-19
RXF 393 = test system: RXF 393
HCT-15 = test system: HCT-15
U-251 = test system: U-251
T47D = test system: T47D
EKVX = test system: EKVX
BT-549 = test system: BT-549
Malme-3M = test system: Malme-3M
SK-MEL-5 = test system: SK-MEL-5
MDA-MB-435 = test system: MDA-MB-435
SR = test system: SR
SK-MEL-28 = test system: SK-MEL-28
K562 = test system: K562
KM12 = test system: KM12
UACC-257 = test system: UACC-257
OVCAR-8 = test system: OVCAR-8
A549 = test system: A549
786-0 = test system: 786-0
SK-MEL-2 = test system: SK-MEL-2
NCI-H226 = test system: NCI-H226
NCI-H522 = test system: NCI-H522
OVCAR-5 = test system: OVCAR-5
HL-60 = test system: HL-60
CCRF-CEM = test system: CCRF-CEM
UO-31 = test system: UO-31

CC(C)(S)C(N)C(=O)O (stereo not drawn) [DL-PENICILLAMINE]
GI50 (HCT-116): > 100 µM (inactive) | GI50 (SF-539): > 100 µM (inactive) | GI50 (SF-295): > 100 µM (inactive) | GI50 (IGROV-1): > 100 µM (inactive) | GI50 (SN12C): > 100 µM (inactive) | GI50 (HOP-92): > 100 µM (inactive) | GI50 (MOLT-4): > 100 µM (inactive) | GI50 (A498): > 100 µM (inactive) | GI50 (SF-268): > 100 µM (inactive) | GI50 (COLO 205): > 100 µM (inactive) | GI50 (LOX IMVI): > 100 µM (inactive) | GI50 (MCF7): > 100 µM (inactive) | GI50 (NCI/ADR-RES): > 100 µM (inactive) | GI50 (OVCAR-4): > 100 µM (inactive) | GI50 (SW-620): > 100 µM (inactive) | GI50 (NCI-H460): > 100 µM (inactive) | GI50 (UACC-62): > 100 µM (inactive) | GI50 (MDA-N): > 100 µM (inactive) | GI50 (SNB-75): > 100 µM (inactive) | GI50 (CAKI-1): > 100 µM (inactive) | GI50 (Hs-578T): > 100 µM (inactive) | GI50 (OVCAR-3): > 100 µM (inactive) | GI50 (NCI-H23): > 100 µM (inactive) | GI50 (MDA-MB-231): > 100 µM (inactive) | GI50 (RPMI-8226): > 100 µM (inactive) | GI50 (SK-OV-3): > 100 µM (inactive) | GI50 (PC-3): > 100 µM (inactive) | GI50 (M14): > 100 µM (inactive) | GI50 (TK-10): > 100 µM (inactive) | GI50 (DU-145): > 100 µM (inactive) | GI50 (ACHN): > 100 µM (inactive) | GI50 (HT-29): > 100 µM (inactive) | GI50 (HOP-62): > 100 µM (inactive) | GI50 (SNB-19): > 100 µM (inactive) | GI50 (RXF 393): > 100 µM (inactive) | GI50 (HCT-15): > 100 µM | GI50 (U-251): > 100 µM (inactive) | GI50 (T47D): > 100 µM (inactive) | GI50 (EKVX): > 100 µM (inactive) | GI50 (BT-549): > 100 µM (inactive) | GI50 (Malme-3M): > 100 µM (inactive) | GI50 (SK-MEL-5): > 100 µM (inactive) | GI50 (MDA-MB-435): > 100 µM (inactive) | GI50 (SR): > 100 µM (inactive) | GI50 (SK-MEL-28): > 100 µM (inactive) | GI50 (K562): > 100 µM (inactive) | GI50 (KM12): > 100 µM (inactive) | GI50 (UACC-257): > 100 µM (inactive) | GI50 (OVCAR-8): > 100 µM (inactive) | GI50 (A549): > 100 µM (inactive) | GI50 (786-0): > 100 µM (inactive) | GI50 (SK-MEL-2): > 100 µM (inactive) | GI50 (NCI-H226): > 100 µM (inactive) | GI50 (NCI-H522): > 100 µM (inactive) | GI50 (OVCAR-5): > 100 µM (inactive)

CC[C@]12C=CCN3CCC4(c5cc(/N=N/c6ccc([N+](=O)[O-])cc6)c(OC)cc5N(C)[C@H]4[C@@](O)(C(=O)OC)[C@@H]1OC(C)=O)[C@@H]32 (some centres not stated)
GI50 (HCT-116): 10.7 µM (inactive) | GI50 (SF-539): 16.8 µM (inactive) | GI50 (SF-295): 10.6 µM (inactive) | GI50 (IGROV-1): 11.9 µM (inactive) | GI50 (SN12C): 23.8 µM (inactive) | GI50 (HOP-92): 2.54 µM (inactive) | GI50 (MOLT-4): 3.01 µM (inactive) | GI50 (A498): 14.1 µM (inactive) | GI50 (SF-268): 16.2 µM (inactive) | GI50 (COLO 205): 4.63 µM (inactive) | GI50 (LOX IMVI): 16.3 µM (inactive) | GI50 (MCF7): 11.6 µM (inactive) | GI50 (NCI/ADR-RES): 7.18 µM (inactive) | GI50 (OVCAR-4): 9.59 µM (inactive) | GI50 (SW-620): 2.56 µM (inactive) | GI50 (HL-60): 7.31 µM (inactive) | GI50 (NCI-H460): 19.8 µM (inactive) | GI50 (UACC-62): 17.2 µM (inactive) | GI50 (MDA-N): 12.9 µM (inactive) | GI50 (SNB-75): 9.48 µM (inactive) | GI50 (CAKI-1): 12.9 µM (inactive) | GI50 (Hs-578T): 18.4 µM (inactive) | GI50 (OVCAR-3): 4.53 µM (inactive) | GI50 (NCI-H23): 10.5 µM (inactive) | GI50 (MDA-MB-231): 9.59 µM (inactive) | GI50 (RPMI-8226): 3.48 µM (inactive) | GI50 (SK-OV-3): 18 µM (inactive) | GI50 (PC-3): 4.26 µM (inactive) | GI50 (M14): 15.5 µM (inactive) | GI50 (TK-10): 17.2 µM (inactive) | GI50 (DU-145): 22.8 µM (inactive) | GI50 (ACHN): 15 µM (inactive) | GI50 (HT-29): 10.4 µM (inactive) | GI50 (HOP-62): 13.6 µM (inactive) | GI50 (SNB-19): 26.6 µM (inactive) | GI50 (RXF 393): 12.5 µM (inactive) | GI50 (HCT-15): 13.5 µM | GI50 (U-251): 11.2 µM (inactive) | GI50 (CCRF-CEM): 1.77 µM (inactive) | GI50 (T47D): 13.3 µM (inactive) | GI50 (EKVX): 9.86 µM (inactive) | GI50 (BT-549): 72.4 µM (inactive) | GI50 (Malme-3M): 16.1 µM (inactive) | GI50 (SK-MEL-5): 12.4 µM (inactive) | GI50 (MDA-MB-435): 11.7 µM (inactive) | GI50 (SR): 9.71 µM (inactive) | GI50 (SK-MEL-28): 11.8 µM (inactive) | GI50 (K562): 6.32 µM (inactive) | GI50 (KM12): 14.3 µM (inactive) | GI50 (UACC-257): 14.7 µM (inactive) | GI50 (OVCAR-8): 7.46 µM (inactive) | GI50 (A549): 15.3 µM (inactive) | GI50 (786-0): 11.8 µM (inactive) | GI50 (SK-MEL-2): 13 µM (inactive) | GI50 (NCI-H226): 5.5 µM (inactive) | GI50 (OVCAR-5): 13 µM (inactive) | GI50 (UO-31): 11.2 µM (inactive)
